{
  "source": "patent US8450317B2",
  "about": "“CXCR3 receptor antagonists” (Boehringer Ingelheim International GmbH, priority 2009, dated 2013)",
  "note": "pIC50: −log10 of the molar value.",
  "data": [
    {"biological_target": "CXCR3 (Macaca fascicularis, UniProt A0A2K5UV19)", "sequence (A0A2K5UV19 entry or part of it)": "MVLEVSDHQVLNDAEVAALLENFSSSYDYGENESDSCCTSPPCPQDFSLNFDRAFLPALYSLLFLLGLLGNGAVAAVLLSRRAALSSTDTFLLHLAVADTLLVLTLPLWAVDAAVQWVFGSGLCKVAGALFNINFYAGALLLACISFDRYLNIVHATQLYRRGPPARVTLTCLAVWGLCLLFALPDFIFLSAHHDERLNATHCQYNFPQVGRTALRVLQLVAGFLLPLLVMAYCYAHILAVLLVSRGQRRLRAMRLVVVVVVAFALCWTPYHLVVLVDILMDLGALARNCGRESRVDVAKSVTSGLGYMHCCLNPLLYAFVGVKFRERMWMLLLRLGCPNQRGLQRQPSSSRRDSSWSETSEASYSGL", "experiment": "functional cellular assay measuring calcium flux in CXCR3 transfected cells (block of CXCR3/IP-10 interaction)", "format": "cell-based, Cyno", "conditions": "IP-10 induced intracellular calcium flux; Cyno-CHO cells stably expressing recombinant CXCR3 and G-alpha-16; IP-10 at EC80; read-out: IC50", "how_it_was_run": "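Cyno-CHO cells stably expressing CXCR3 and G-alpha-16, loaded with Ca-4 dye in HBSS/10 mM HEPES pH 7.4 with 2 mM probenecid for 1 h at 37° C. Compound (final 10 microM) preincubated 15 min at room temperature, then IP-10 at EC80 added; calcium flux read at 480/540 nm.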", "values": [
      {"molecule": "O=C(Cn1ccc2cccnc21)N1CCN(c2ccc(Cl)cc2-c2cnc(N3CCOCC3)nc2)CC1", "note": "[1-{4-[4-Chloro-2-(2-morpholin-4-yl-pyrimidin-5-yl)-phenyl]-piperazin-1-yl}-2-pyrrolo[2,3-b]pyridin-1-yl-ethanone]", "pIC50": 7.89},
      {"molecule": "O=C(Cn1c(=O)[nH]c2ccccc21)N1CCN(c2ccccc2-c2ccccc2)CC1", "note": "[1-[2-(4-Biphenyl-2-yl-piperazin-1-yl)-2-oxo-ethyl]-1,3-dihydro-benzoimidazol-2-one]", "pIC50": 6.85},
      {"molecule": "CN(C)c1ncc(-c2ccccc2N2CCN(C(=O)Cn3ccc4cccnc43)CC2)cn1", "note": "[1-{4-[2-(2-Dimethylamino-pyrimidin-5-yl)-phenyl]-piperazin-1-yl}-2-pyrrolo[2,3-b]pyridin-1-yl-ethanone]", "pIC50": 8.22},
      {"molecule": "CC1CN(c2ccc(C(F)(F)F)cc2-c2cnc(S(C)(=O)=O)nc2)CCN1C(=O)CN1CCCCC1=O", "note": "(stereo not shown) [1-[2-(2-methyl-4-{2-[2-(methylsulfonyl)pyrimidin-5-yl]-4-(trifluoromethyl)phenyl}piperazin-1-yl)-2-oxoethyl]piperidin-2-one]", "pIC50": 6.51},
      {"molecule": "COc1ncc(-c2cc(Cl)ccc2N2CCN(C(=O)Cn3nc(C)cc3C)CC2)cn1", "note": "[1-{4-[4-Chloro-2-(2-methoxy-pyrimidin-5-yl)-phenyl]-piperazin-1-yl}-2-(3,5-dimethyl-pyrazol-1-yl)-ethanone]", "pIC50": 7.92},
      {"molecule": "COc1ncc(-c2ccccc2N2CCN(C(=O)CN3Cc4ccccc4C3=O)CC2)cn1", "note": "[2-(2-{4-[2-(2-Methoxy-pyrimidin-5-yl)-phenyl]-piperazin-1-yl}-2-oxo-ethyl)-2,3-dihydro-isoindol-1-one]", "pIC50": 7.77},
      {"molecule": "CC1CN(c2ccc(C(F)(F)F)cc2-c2cnc(N3CCC(O)CC3)nc2)CCN1C(=O)Cn1cnc2cccnc21", "note": "(stereo not shown) [1-(4-{2-[2-(4-hydroxypiperidin-1-yl)pyrimidin-5-yl]-4-(trifluoromethyl)phenyl}-2-methylpiperazin-1-yl)-2-(3H-imidazo[4,5-b]pyridin-3-yl)ethanone]", "pIC50": 7.96},
      {"molecule": "CC1CN(c2ccc(C(F)(F)F)cc2-c2cnc(N3CCC(S(C)(=O)=O)CC3)nc2)CCN1C(=O)Cn1ccc2ccncc21", "note": "(stereo not shown) [1-{2-methyl-4-[2-{2-[4-(methylsulfonyl)piperidin-1-yl]pyrimidin-5-yl}-4-(trifluoromethyl)phenyl]piperazin-1-yl}-2-(1H-pyrrolo[2,3-c]pyridin-1-yl)ethanone]", "pIC50": 8.15},
      {"molecule": "COc1ccc(-c2ccccc2N2CCN(C(=O)Cn3ccc4cccnc43)CC2)cn1", "note": "[1-{4-[2-(6-Methoxy-pyridin-3-yl)-phenyl]-piperazin-1-yl}-2-pyrrolo[2,3-b]pyridin-1-yl-ethanone]", "pIC50": 7.47},
      {"molecule": "O=C(CN1Cc2ccccc2C1=O)N1CCN(c2ccc(F)cc2-c2cnc(N3CCCC3)nc2)CC1", "note": "[2-[2-(4-{4-fluoro-2-[2-(pyrrolidin-1-yl)pyrimidin-5-yl]phenyl}piperazin-1-yl)-2-oxoethyl]-2,3-dihydro-1H-isoindol-1-one]", "pIC50": 7.82},
      {"molecule": "CC1CN(c2ccc(C(F)(F)F)cc2-c2cnc(S(C)(=O)=O)nc2)CCN1C(=O)Cn1cnc2cccnc21", "note": "(stereo not shown) [2-(3H-imidazo[4,5-b]pyridin-3-yl)-1-(2-methyl-4-{2-[2-(methylsulfonyl)pyrimidin-5-yl]-4-(trifluoromethyl)phenyl}piperazin-1-yl)ethanone]", "pIC50": 6.72},
      {"molecule": "COc1ncc(-c2cc(C(F)(F)F)ccc2N2CCN(C(=O)Cn3ccc4cccnc43)CC2)cn1", "note": "[1-{4-[2-(2-Methoxy-pyrimidin-5-yl)-4-trifluoromethyl-phenyl]-piperazin-1-yl}-2-pyrrolo[2,3-b]pyridin-1-yl-ethanone]", "pIC50": 8.10},
      {"molecule": "COc1ncc(-c2ccccc2N2CCN(C(=O)Cn3ccc4c(Cl)ncnc43)CC2)cn1", "note": "[2-(4-Chloro-pyrrolo[2,3-d]pyrimidin-7-yl)-1-{4-[2-(2-methoxy-pyrimidin-5-yl)-phenyl]-piperazin-1-yl}-ethanone]", "pIC50": 7.32},
      {"molecule": "COc1ncc(-c2ccccc2N2CCN(C(=O)Cn3ncc4ccccc43)CC2)cn1", "note": "[2-Indazol-1-yl-1-{4-[2-(2-methoxy-pyrimidin-5-yl)-phenyl]-piperazin-1-yl}-ethanone]", "pIC50": 7.46},
      {"molecule": "COc1cc(NC(=O)c2cc(F)ccc2N2CCN(C(=O)CN3CCCCC3=O)[C@H](C)C2)ccn1", "note": "[5-fluoro-N-(2-methoxypyridin-4-yl)-2-{(3R)-3-methyl-4-[(2-oxopiperidin-1-yl)acetyl]piperazin-1-yl}benzamide]", "pIC50": 8.00},
      {"molecule": "C[C@@H]1CN(c2ncc(-c3ccccc3N3CCN(C(=O)Cn4ccc5cccnc54)CC3)cn2)C[C@H](C)O1", "note": "[1-(4-{2-[2-((2R,6S)-2,6-Dimethyl-morpholin-4-yl)-pyrimidin-5-yl]-phenyl}-piperazin-1-yl)-2-pyrrolo[2,3-b]pyridin-1-yl-ethanone]", "pIC50": 8.00},
      {"molecule": "COc1cc(NC(=O)c2cc(F)ccc2N2CCN(C(=O)Cn3ccc4ccncc43)[C@H](C)C2)ccn1", "note": "[5-fluoro-N-(2-methoxypyridin-4-yl)-2-[(3R)-3-methyl-4-(1H-pyrrolo[2,3-c]pyridin-1-ylacetyl)piperazin-1-yl]benzamide]", "pIC50": 8.05},
      {"molecule": "O=C(Cn1c(=O)[nH]c2ccccc21)N1CCN(c2ccc(F)cc2-c2cnc(N3CCC(O)CC3)nc2)CC1", "note": "[1-[2-(4-{4-fluoro-2-[2-(4-hydroxypiperidin-1-yl)pyrimidin-5-yl]phenyl}piperazin-1-yl)-2-oxoethyl]-1,3-dihydro-2H-benzimidazol-2-one]", "pIC50": 8.10},
      {"molecule": "COc1cc(NC(=O)c2cc(F)ccc2N2CCN(C(=O)Cn3nc(C)cc3C)[C@@H](C)C2)ccn1", "note": "[2-{(3S)-4-[(3,5-dimethyl-1H-pyrazol-1-yl)acetyl]-3-methylpiperazin-1-yl}-5-fluoro-N-(2-methoxypyridin-4-yl)benzamide]", "pIC50": 7.92},
      {"molecule": "CN1CCN(c2ncc(-c3cc(F)ccc3N3CCN(C(=O)CN4CCCCC4=O)CC3)cn2)CC1", "note": "[1-[2-(4-{4-fluoro-2-[2-(4-methylpiperazin-1-yl)pyrimidin-5-yl]phenyl}piperazin-1-yl)-2-oxoethyl]piperidin-2-one]", "pIC50": 7.03},
      {"molecule": "CC1CN(c2ccc(C(F)(F)F)cc2-c2cnc(N3CCC(O)CC3)nc2)CCN1C(=O)Cn1c(=O)[nH]c2ccccc21", "note": "(stereo not shown) [1-[2-(4-{2-[2-(4-hydroxypiperidin-1-yl)pyrimidin-5-yl]-4-(trifluoromethyl)phenyl}-2-methylpiperazin-1-yl)-2-oxoethyl]-1,3-dihydro-2H-benzimidazol-2-one]", "pIC50": 8.05},
      {"molecule": "COC[C@@H]1CCCN1c1ncc(-c2ccccc2N2CCN(C(=O)Cn3nc(C)cc3C)CC2)cn1", "note": "[2-(3,5-Dimethyl-pyrazol-1-yl)-1-(4-{2-[2-((S)-2-methoxymethyl-pyrrolidin-1-yl)-pyrimidin-5-yl]-phenyl}-piperazin-1-yl)-ethanone]", "pIC50": 7.92},
      {"molecule": "COc1ncc(-c2cc(C#N)ccc2N2CCN(C(=O)Cn3nc(C)cc3C)CC2)cn1", "note": "[4-{4-[2-(3,5-Dimethyl-pyrazol-1-yl)-acetyl]-piperazin-1-yl}-3-(2-methoxy-pyrimidin-5-yl)-benzonitrile]", "pIC50": 6.82},
      {"molecule": "O=C(Cn1c(=O)[nH]c2ccccc21)N1CCN(c2ccc(F)cc2-c2cnc(N3CCOCC3)nc2)CC1", "note": "[1-[2-(4-{4-fluoro-2-[2-(morpholin-4-yl)pyrimidin-5-yl]phenyl}piperazin-1-yl)-2-oxoethyl]-1,3-dihydro-2H-benzimidazol-2-one]", "pIC50": 7.96},
      {"molecule": "Cc1cc(C)n(CC(=O)N2CCN(c3ccccc3-c3cnc(N4CC(F)(F)C4)nc3)CC2)n1", "note": "[1-(4-{2-[2-(3,3-Difluoro-azetidin-1-yl)-pyrimidin-5-yl]-phenyl}-piperazin-1-yl)-2-(3,5-dimethyl-pyrazol-1-yl)-ethanone]", "pIC50": 8.15},
      {"molecule": "CNc1ncc(-c2cc(C#N)ccc2N2CCN(C(=O)Cn3ccc4cccnc43)CC2)cn1", "note": "[3-(2-Methylamino-pyrimidin-5-yl)-4-[4-(2-pyrrolo[2,3-b]pyridin-1-yl-acetyl)-piperazin-1-yl]-benzonitrile]", "pIC50": 8.10},
      {"molecule": "O=C(Cn1ccc2cccnc21)N1CCN(c2ccccc2-c2ccnc(N3CCOCC3)c2)CC1", "note": "[1-{4-[2-(2-Morpholin-4-yl-pyridin-4-yl)-phenyl]-piperazin-1-yl}-2-pyrrolo[2,3-b]pyridin-1-yl-ethanone]", "pIC50": 7.80},
      {"molecule": "CC1CN(c2ccccc2-c2cnc(N3CCC(O)CC3)nc2)CCN1C(=O)Cn1ccc2cccnc21", "note": "(stereo not shown) [1-(4-{2-[2-(4-hydroxypiperidin-1-yl)pyrimidin-5-yl]phenyl}-2-methylpiperazin-1-yl)-2-(1H-pyrrolo[2,3-b]pyridin-1-yl)ethanone]", "pIC50": 8.05},
      {"molecule": "Cc1cc(C)n(CC(=O)N2CCN(c3ccccc3-c3cnc(N4CCOCC4)nc3)CC2)n1", "note": "[2-(3,5-Dimethyl-pyrazol-1-yl)-1-{4-[2-(2-morpholin-4-yl-pyrimidin-5-yl)-phenyl]-piperazin-1-yl}-ethanone]", "pIC50": 8.05},
      {"molecule": "CC1CN(C(=O)Cn2ccc3cccnc32)CCN1c1ccccc1-c1cnc(N2CCOCC2)nc1", "note": "(stereo not shown) [1-{3-Methyl-4-[2-(2-morpholin-4-yl-pyrimidin-5-yl)-phenyl]-piperazin-1-yl}-2-pyrrolo[2,3-b]pyridin-1-yl-ethanone]", "pIC50": 7.96},
      {"molecule": "CC1CN(c2ccc(C(F)(F)F)cc2-c2cnc(N3CCC(O)CC3)nc2)CCN1C(=O)Cn1ccc2cccnc21", "note": "(stereo not shown) [1-(4-{2-[2-(4-hydroxypiperidin-1-yl)pyrimidin-5-yl]-4-(trifluoromethyl)phenyl}-2-methylpiperazin-1-yl)-2-(1H-pyrrolo[2,3-b]pyridin-1-yl)ethanone]", "pIC50": 8.00},
      {"molecule": "O=C(Cn1ccc2cccnc21)N1CCN(c2ccccc2-c2cnc(N3CCOCC3)nc2)CC1", "note": "[1-{4-[2-(2-Morpholin-4-yl-pyrimidin-5-yl)-phenyl]-piperazin-1-yl}-2-pyrrolo[2,3-b]pyridin-1-yl-ethanone]", "pIC50": 8.22},
      {"molecule": "CC1CN(c2ccc(C(F)(F)F)cc2-c2cnc(S(C)(=O)=O)nc2)CCN1C(=O)Cn1ccc2cccnc21", "note": "(stereo not shown) [1-(2-methyl-4-{2-[2-(methylsulfonyl)pyrimidin-5-yl]-4-(trifluoromethyl)phenyl}piperazin-1-yl)-2-(1H-pyrrolo[2,3-b]pyridin-1-yl)ethanone]", "pIC50": 7.52},
      {"molecule": "Cc1ccc(-c2ccccc2N2CCN(C(=O)Cn3nc(C)cc3C)CC2)cc1", "note": "[2-(3,5-Dimethyl-pyrazol-1-yl)-1-[4-(4′-methyl-biphenyl-2-yl)-piperazin-1-yl]-ethanone]", "pIC50": 7.15}
    ]}
  ]
}
